In US20050197365A1, “Diamino thiazoloindan derivatives and their use” (priority 2004, published 2005):

Key:
MPP+ treated PC-12 cells = assay: Effect on MPP+ treated PC-12 cells (neuroprotection, LDH release); format: cell-based; conditions: 1000 μM MPP+ for 48 hours, LDH in medium
Description: Pheochromocytoma PC-12 cells (at a density of 200,000 cells/well) were cultured for 10 days with 50 ng/ml NGF on 6-well culture dishes coated with […] rat tail type I collagen (BD Biosciences, Bedford, Mass., USA). At the day of the experiment the morphological differentiation of the cells was very advanced (typical network formation). In order to initiate the neurotoxic insult, cells were treated with 1000 μM of 1-methyl-4-phenylpyrdinium (MPP+) iodide salt from RBI chemicals (Natick, Mass., USA) for 48 hours in the absence or presence of tested compounds, added to the culture 30 min. prior to MPP+ administration. […] At the cellular level, neuronal cell death is induced by several mechanisms including pathological concentrations of intracellular calcium and free oxygen radicals. Therefore the positive controls in this experiment were nimodipine at the concentration of 10 μM (RBI chemicals, Natick, Mass., USA) (a potent L-type calcium channel blocker) and 4-hydroxy-2,2,6,6-tetramethylpiperidyne-1-oxyl (tempol, a potent antioxidant) at a concentration of 500 μM, (Sigma, St Louis, Mo., USA). At the end of the experiment cell death was measured by assessing Lactate dehydrogenase (LDH) activity in the medium. High medium LDH indicated increased neuronal death that promoted leakage of this cytoplasmic enzyme into the medium.
Measuring lactate dehydrogenase activity in the medium was performed using a Sigma Diagnostics LD-L reagent. LDH activity was spectrophotometrically monitored at 340 nm by following the rate of conversion of oxidized nicotinamide adenine dinucleotide (NAD^+) to the reduced form of (NADH). Total LDH of each culture (extracellular+intracellular) was obtained by measuring LDH in the medium after freezing and thawing of the cultures. Basal LDH release was measured in untreated cultures (no MPP+). The neurotoxic effect was calculated according to the formula: (LDHs−LDHb)/LDHt×100. (s=sample; b=basal; t=total). Each compound was tested in sixplicate.
To calculate the percentage of neuroprotection for each set of sixplicate experiments, the average neurotoxicity was calculated and the following calculation was undertaken: 100−([neurotoxicity test compound/neurotoxicity MPP^+]×100).

EAE = assay: Experimental Allergic Encephalomyelitis (EAE) model of MS; format: in vivo, mice; conditions: for incidence Value: mice, 10/group; for GMS % inhibition (first GMS column) / GMS % inhibition (second GMS column) / incidence % inhibition: vs methyl cellulose control; for GMS Value (first GMS column) / GMS Value (second GMS column): EAE score scale 0-5
[1] = Dose 1 μM, NGF-differentiated PC-12 cells
[2] = Dose 10 μM, NGF-differentiated PC-12 cells
[3] = 2 × 10 mg/kg oral (twice a day)

## C#CCNC1CCc2ccc3nc(N)sc3c21.Cl.Cl (stereo not drawn) [Compound B-1, N8-prop-2-ynyl-7,8-dihydro-6H-1-thia-3-aza-as-indacene-2,8-diamine diHCl]
MPP+ treated PC-12 cells; [1]
  % neuroprotection: 60-87%
MPP+ treated PC-12 cells; [2]
  % neuroprotection: 58-81%
EAE; 2 × 5 mg/kg oral
  Mean duration: 0.1 ± 0.3 days
  GMS % inhibition (first GMS column): 90.0%
  GMS % inhibition (second GMS column): 99.2%
  incidence % inhibition: 75.0%
  GMS Value (first GMS column): 0.1 ± 0.3
  GMS Value (second GMS column): 0.005 ± 0.02
EAE; 2 × 5 mg/kg oral (twice a day)
  incidence Value: 1/10
EAE; 2 × 10 mg/kg oral
  Mean duration: 3.3 ± 7.0 days
  GMS % inhibition (first GMS column): 60.0%
  GMS % inhibition (second GMS column): 50.0%
  incidence % inhibition: 50.0%
  GMS Value (first GMS column): 0.4 ± 1.0
  GMS Value (second GMS column): 0.3 ± 0.8
EAE; [3]
  incidence Value: 2/10

## CC1(C)CC(O)CC(C)(C)N1[O] [Tempol, 4-hydroxy-2,2,6,6-tetramethylpiperidyne-1-oxyl, reference compound]
MPP+ treated PC-12 cells; Dose 1000 μM (positive control)
  % neuroprotection: 100%

## C#CCNC1CCc2cc3sc(N)nc3cc21.Cl.Cl (stereo not drawn) [Compound A-1, N5-prop-2-ynyl-6,7-dihydro-5H-1-thia-3-aza-s-indacene-2,5-diamine diHCl]
MPP+ treated PC-12 cells; [1]
  % neuroprotection: 50%
MPP+ treated PC-12 cells; [2]
  % neuroprotection: 60%
EAE; 2 × 5 mg/kg oral
  Mean duration: 3.0 ± 6.3 days
  GMS % inhibition (first GMS column): 40.0%
  GMS % inhibition (second GMS column): 33.3%
  incidence % inhibition: 50.0%
  GMS Value (first GMS column): 0.6 ± 1.3
  GMS Value (second GMS column): 0.4 ± 0.8
EAE; 2 × 5 mg/kg oral (twice a day)
  incidence Value: 2/10
EAE; 2 × 10 mg/kg oral
  Mean duration: 1.8 ± 5.7 days
  GMS % inhibition (first GMS column): 70.0%
  GMS % inhibition (second GMS column): 66.7%
  incidence % inhibition: 75.0%
  GMS Value (first GMS column): 0.3 ± 0.9
  GMS Value (second GMS column): 0.2 ± 0.6
EAE; [3]
  incidence Value: 1/10
